Source: article PMC10653921 (mBio, 2023)

Columns and labels:
PA4915-LBD = target: T1, PA4915-LBD (Pseudomonas aeruginosa, UniProt Q9HUP8); type: binding; conditions: read-out: KD by ITC ^ b
T1 sequence (Q9HUP8 32-189 limits assumed): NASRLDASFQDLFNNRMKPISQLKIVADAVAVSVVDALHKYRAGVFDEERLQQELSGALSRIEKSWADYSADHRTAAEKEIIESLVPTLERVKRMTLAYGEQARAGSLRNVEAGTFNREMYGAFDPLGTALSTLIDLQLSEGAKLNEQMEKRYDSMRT

PctC-Tar = conditions: read-out: EC50 by FRET ^ a; attractant response, tethering buffer pH 7.0, Hill fit
PctB-LBD (PA4310) = target: T2, PctB-LBD (PA4310) (Pseudomonas aeruginosa, UniProt Q9HW91); type: binding; conditions: read-out: KD by ITC ^ b
T2 sequence (Q9HW91 32-276 limits assumed): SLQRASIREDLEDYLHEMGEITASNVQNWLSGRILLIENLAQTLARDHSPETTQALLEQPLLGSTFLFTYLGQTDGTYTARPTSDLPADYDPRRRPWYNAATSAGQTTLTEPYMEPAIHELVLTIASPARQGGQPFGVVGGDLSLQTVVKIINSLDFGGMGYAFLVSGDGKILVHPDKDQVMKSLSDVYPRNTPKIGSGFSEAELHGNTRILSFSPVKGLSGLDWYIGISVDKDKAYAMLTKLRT

PctB-Tar = conditions: read-out: EC50 by FRET ^ a; attractant response, tethering buffer pH 7.0, Hill fit
PctA-Tar = conditions: read-out: EC50 by FRET ^ a; attractant response, tethering buffer pH 7.0, Hill fit

NCCc1ccccc1 [2-Phenylethylamine]
Kd (PA4915-LBD): 58 ± 11 µM

NCCCCC(=O)O [5-Aminovalerate]
EC50 (PctC-Tar): 1.5 ± 0.2 µM

NCCC[C@H](N)C(=O)O [L-Ornithine]
Kd (PctB-LBD (PA4310)): 559 ± 80 µM
EC50 (PctB-Tar): 10.2 ± 0.8 µM
EC50 (PctA-Tar): 1.8 ± 0.2 µM

COC(=O)CCCN [Methyl 4-aminobutyrate]
EC50 (PctC-Tar): 2.9 ± 0.4 µM
